This is an account of results in patent US9695154B2, “Heteroaryl inhibitors of sumo activating enzyme” (MILLENNIUM PHARMACEUTICALS, INC., priority 2013, dated 2017).

For this assay, the target named is T1, recombinant human SAE enzyme (Homo sapiens, UniProt Q9UBT2).
T1 sequence (Q9UBT2 1-640): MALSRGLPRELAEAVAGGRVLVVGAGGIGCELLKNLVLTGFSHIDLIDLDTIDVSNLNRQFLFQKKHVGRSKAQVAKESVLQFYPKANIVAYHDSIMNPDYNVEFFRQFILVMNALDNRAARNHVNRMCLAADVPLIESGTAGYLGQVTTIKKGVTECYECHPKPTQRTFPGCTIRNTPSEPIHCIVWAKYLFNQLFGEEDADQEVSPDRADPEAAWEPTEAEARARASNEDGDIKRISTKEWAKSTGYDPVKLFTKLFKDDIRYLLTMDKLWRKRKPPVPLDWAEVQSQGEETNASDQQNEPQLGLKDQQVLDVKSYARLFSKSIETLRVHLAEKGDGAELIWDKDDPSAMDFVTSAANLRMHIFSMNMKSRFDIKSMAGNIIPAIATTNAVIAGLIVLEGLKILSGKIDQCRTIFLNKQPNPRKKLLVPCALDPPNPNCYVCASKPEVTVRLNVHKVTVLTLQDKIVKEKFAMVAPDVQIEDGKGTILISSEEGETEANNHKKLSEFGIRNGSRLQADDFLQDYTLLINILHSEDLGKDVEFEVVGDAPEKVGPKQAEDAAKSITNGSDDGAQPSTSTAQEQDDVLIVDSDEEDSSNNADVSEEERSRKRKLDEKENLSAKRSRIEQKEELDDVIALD
T1 sequence (Q9UBE0 1-346 partner): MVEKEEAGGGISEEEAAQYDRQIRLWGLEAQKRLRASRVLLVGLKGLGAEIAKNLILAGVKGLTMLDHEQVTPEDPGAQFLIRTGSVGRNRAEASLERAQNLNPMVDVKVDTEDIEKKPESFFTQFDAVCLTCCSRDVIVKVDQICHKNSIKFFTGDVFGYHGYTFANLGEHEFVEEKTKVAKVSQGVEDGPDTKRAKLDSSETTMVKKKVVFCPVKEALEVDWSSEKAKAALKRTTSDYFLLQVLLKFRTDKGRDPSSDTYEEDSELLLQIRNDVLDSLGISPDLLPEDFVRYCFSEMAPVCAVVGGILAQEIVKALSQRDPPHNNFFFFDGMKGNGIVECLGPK
Description: SAE HTRF Enzyme Assay. The conditions noted are these: for IC50: class symbols A-C; for inhibition at 0.111 µM: compound concentration 0.111 μM, read-out: Percent Inhibition. Format: biochemical. In outline: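 Measured as FRET after a 2 h antibody step: SAE (0.11 nM) thioester transfer of Sumo-Flag to Ubc9-GST, 0.5 μM ATP, 24° C for 105 min, quenched with 20 mM EDTA. Output is IC50 or percent inhibition at a single concentration.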

Where only a bound is given, the exact number is not on record here.

Consider `NS(=O)(=O)OC[C@H]1C[C@@H](Nc2ncncc2C(=O)c2ccn(Cc3ccc4ccccc4c3)n2)[C@H](O)[C@@H]1O` [Compound I-103, {(1R,2R,3S,4R)-2,3-dihydroxy-4-[(5-{[1-(2-naphthylmethyl)-1H-pyrazol-3-yl]carbonyl}pyrimidin-4-yl)amino]cyclopentyl}methyl sulfamate], for which the half-maximal inhibitory concentration (IC50) was below 10 nM and the inhibition at 0.111 µM turned out to be 97%.
On the same counts, the results for `NS(=O)(=O)OC[C@H]1C[C@@H](Nc2ncncc2C(=O)c2ccn(Cc3cc(I)ccc3Cl)n2)C[C@@H]1O` [Compound I-104, {(1R,2S,4R)-4-[(5-{[1-(2-chloro-5-iodobenzyl)-1H-pyrazol-3-yl]carbonyl}pyrimidin-4-yl)amino]-2-hydroxycyclopentyl}methyl sulfamate] are below 10 nM and 100%.
Taken in the same sequence, the figures for `NS(=O)(=O)OC[C@H]1C[C@@H](Nc2ncncc2C(=O)c2cc(Cl)n(Cc3cccc(Br)c3)c2Cl)[C@@H](F)[C@@H]1O` [Compound I-105, {(1R,2R,3R,4R)-4-[(5-{[1-(3-bromobenzyl)-2,5-dichloro-1H-pyrrol-3-yl]carbonyl}pyrimidin-4-yl)amino]-3-fluoro-2-hydroxycyclopentyl}methyl sulfamate] were 100 to 1000 nM and 18%.
For `NS(=O)(=O)OC[C@H]1C[C@@H](Nc2ncncc2C(=O)c2ccn(Cc3ccc(F)cc3)n2)[C@H](O)[C@@H]1O` [Compound I-106, {(1R,2R,3S,4R)-4-[(5-{[1-(4-fluorobenzyl)-1H-pyrazol-3-yl]carbonyl}pyrimidin-4-yl)amino]-2,3-dihydroxycyclopentyl}methyl sulfamate], the IC50 is below 10 nM and the inhibition at 0.111 µM was above 99%.
On to `C/C=C/Cn1ccc(C(=O)c2cncnc2N[C@@H]2C[C@H](COS(N)(=O)=O)[C@@H](O)C2)n1` [Compound I-107, [(1R,2S,4R)-4-{[5-({1-[(2E)-but-2-en-1-yl]-1H-pyrazol-3-yl}carbonyl)pyrimidin-4-yl]amino}-2-hydroxycyclopentyl]methyl sulfamate], for which the IC50 was 10 to 100 nM and the inhibition at 0.111 µM worked out at 70%.
Take `N#CCn1ccc(C(=O)c2cncnc2N[C@@H]2C[C@H](COS(N)(=O)=O)[C@@H](O)C2)n1` [Compound I-108, {(1R,2S,4R)-4-[(5-{[1-(cyanomethyl)-1H-pyrazol-3-yl]carbonyl}pyrimidin-4-yl)amino]-2-hydroxycyclopentyl}methyl sulfamate]: the concentration for half-maximal inhibition (IC50) was 100 to 1000 nM and the inhibition at 0.111 µM worked out at 18%.
On the same counts, the results for `CC(C)(O)c1cccc(Cn2ccc(C(=O)c3cncnc3N[C@@H]3C[C@H](COS(N)(=O)=O)[C@@H](O)C3)n2)n1` [Compound I-109, [(1R,2S,4R)-2-hydroxy-4-({5-[(1-{[6-(2-hydroxypropan-2-yl)pyridin-2-yl]methyl}-1H-pyrazol-3-yl)carbonyl]pyrimidin-4-yl}amino)cyclopentyl]methyl sulfamate] are 10 to 100 nM and 76%.
As for `NS(=O)(=O)OC[C@H]1C[C@@H](Nc2ncncc2C(=O)c2ccn(Cc3cc4ccccc4o3)c2)[C@@H](F)[C@@H]1O` [Compound I-110, {(1R,2R,3R,4R)-4-[(5-{[1-(1-benzofuran-2-ylmethyl)-1H-pyrrol-3-yl]carbonyl}pyrimidin-4-yl)amino]-3-fluoro-2-hydroxycyclopentyl}methyl sulfamate], the half-inhibitory concentration (IC50) is below 10 nM and the inhibition at 0.111 µM came out at 99%.
On the same counts, the results for `NS(=O)(=O)OC[C@H]1C[C@@H](Nc2ncncc2C(=O)c2nn(Cc3cccc(Br)c3)cc2Cl)C[C@@H]1O` [Compound I-111, {(1R,2S,4R)-4-[(5-{[1-(3-Bromobenzyl)-4-chloro-1H-pyrazol-3-yl]carbonyl}pyrimidin-4-yl)amino]-2-hydroxycyclopentyl}methyl sulfamate] are below 10 nM and 91%.
Take `NS(=O)(=O)OC[C@H]1C[C@@H](Nc2ncncc2C(=O)c2ccn(Cc3ccc(Cl)c(F)c3)n2)[C@H](O)[C@@H]1O` [Compound I-112, {(1R,2R,3S,4R)-4-[(5-{[1-(4-chloro-3-fluorobenzyl)-1H-pyrazol-3-yl]carbonyl}pyrimidin-4-yl)amino]-2,3-dihydroxycyclopentyl}methyl sulfamate]: the IC50 was below 10 nM and the inhibition at 0.111 µM was 97%.
As for `CC(C)(C)C#CCn1ccc(C(=O)c2cncnc2N[C@@H]2C[C@H](COS(N)(=O)=O)[C@@H](O)C2)n1` [Compound I-113, {(1R,2S,4R)-4-[(5-{[1-(4,4-dimethylpent-2-yn-1-yl)-1H-pyrazol-3-yl]carbonyl}pyrimidin-4-yl)amino]-2-hydroxycyclopentyl}methyl sulfamate], the half-inhibitory concentration (IC50) was in the range of 10 to 100 nM and the inhibition at 0.111 µM turned out to be 81%.
In the case of `NS(=O)(=O)OC[C@H]1C[C@@H](Nc2ncncc2C(=O)c2ccn(Cc3cc(C(F)(F)F)co3)c2)[C@@H](F)[C@@H]1O` [Compound I-114, [(1R,2R,3R,4R)-3-fluoro-2-hydroxy-4-({5-[(1-{[4-(trifluoromethyl)-2-furyl]methyl}-1H-pyrrol-3-yl)carbonyl]pyrimidin-4-yl}amino)cyclopentyl]methyl sulfamate], the 50% inhibitory concentration (IC50) was below 10 nM and the inhibition at 0.111 µM is 98%.
Taken in the same sequence, the figures for `CC#CCCn1ccc(C(=O)c2cncnc2N[C@@H]2C[C@H](COS(N)(=O)=O)[C@@H](O)C2)n1` [Compound I-115] were 100 to 1000 nM and 33%.
For `C=CC(=O)N(C)c1cccc(Cn2ccc(C(=O)c3cncnc3N[C@@H]3C[C@H](COS(N)(=O)=O)[C@@H](O)[C@@H]3F)n2)c1` [Compound I-116, [(1R,2R,3R,4R)-4-({5-[(1-{3-[Acryloyl(methyl)amino]benzyl}-1H-pyrazol-3-yl)carbonyl]pyrimidin-4-yl}amino)-3-fluoro-2-hydroxycyclopentyl]methyl sulfamate], the IC50 fell in the range of 100 to 1000 nM and the inhibition at 0.111 µM was determined as 33%.
Regarding `NS(=O)(=O)OC[C@H]1C[C@@H](Nc2ncncc2C(=O)c2ccn(Cc3cccc(OC(F)F)c3)n2)C[C@@H]1O` [Compound I-117, [(1R,2S,4R)-4-{[5-({1-[3-(difluoromethoxy)benzyl]-1H-pyrazol-3-yl}carbonyl)pyrimidin-4-yl]amino}-2-hydroxycyclopentyl]methyl sulfamate], the IC50 was below 10 nM and the inhibition at 0.111 µM worked out at 98%.
Taken in the same sequence, the figures for `NS(=O)(=O)OC[C@H]1C[C@@H](Nc2ncncc2C(=O)c2ccn(CCc3cccc4ccccc34)n2)[C@H](O)[C@@H]1O` [Compound I-118, [(1R,2R,3S,4R)-2,3-dihydroxy-4-{[5-({1-[2-(1-naphthyl)ethyl]-1H-pyrazol-3-yl}carbonyl)pyrimidin-4-yl]amino}cyclopentyl]methyl sulfamate] were below 10 nM and 99%.
On the same counts, the results for `NS(=O)(=O)OC[C@H]1C[C@@H](Nc2ncncc2C(=O)c2ccn(Cc3cccc(C(F)(F)F)c3)n2)[C@H](O)[C@@H]1O` [Compound I-119, [(1R,2R,3S,4R)-2,3-dihydroxy-4-{[5-({1-[3-(trifluoromethyl)benzyl]-1H-pyrazol-3-yl}carbonyl)pyrimidin-4-yl]amino}cyclopentyl]methyl sulfamate] are below 10 nM and 98%.
For `NS(=O)(=O)OC[C@H]1C[C@@H](Nc2ncncc2C(=O)c2ccn(Cc3cccc(C4(O)COC4)n3)n2)C[C@@H]1O` [Compound I-120, [(1R,2S,4R)-2-hydroxy-4-({5-[(1-{[6-(3-hydroxyoxetan-3-yl)pyridin-2-yl]methyl) 1H pyrazol-3-yl)carbonyl]pyrimidin-4-yl}amino)cyclopentyl]methyl sulfamate], the IC50 fell in the range of 100 to 1000 nM and the inhibition at 0.111 µM came to 47%.
As to `NS(=O)(=O)OC[C@H]1C[C@@H](Nc2ncncc2C(=O)c2ccn(Cc3ccc(F)cc3C(F)(F)F)n2)[C@H](O)[C@@H]1O` [Compound I-121, [(1R,2R,3S,4R)-4-{[5-({1-[4-fluoro-2-(trifluoromethyl)benzyl]-1H-pyrazol-3-yl}carbonyl)pyrimidin-4-yl]amino}-2,3-dihydroxycyclopentyl]methyl sulfamate], the 50% inhibitory concentration (IC50) is below 10 nM and the inhibition at 0.111 µM came to 94%.
